According to ChEMBL document CHEMBL5241118, “4-Aminopyrazolopyrimidine scaffold and its deformation in the design of tyrosine and serine/threonine kinase inhibitors in medicinal chemistry” (RSC Med Chem, 2022):
pIC50, pKd, pKi: −log10 of the molar value. Values joined by “and” are separate entries in the source; they are usually repeats but may differ in a detail not shown here. Equal values may be shown once. Blank lines part the entries; values can stand above or below the molecule they belong to.

Experiments:
[1] = Inhibition of human recombinant 1R N-terminal His-tagged (919 to 1343 residues) expressed in baculovirus infected Sf21 measured after 20 mins by western blot analysis
[2] = biological target: Tyrosine-protein kinase Lck (Homo sapiens, UniProt P06239); assay: Binding affinity to LCK (unknown origin) assessed as dissociation constant
[3] = biological target: Tyrosine-protein kinase Yes (Homo sapiens, UniProt P07947); assay: Binding affinity to YES (unknown origin) assessed as dissociation constant
[4] = biological target: Proto-oncogene tyrosine-protein kinase Src (Homo sapiens, UniProt P12931); assay: Binding affinity to c-Src (unknown origin) assessed as inhibition constant
[5] = biological target: Tyrosine-protein kinase Fgr (Homo sapiens, UniProt P09769); assay: Binding affinity to FGR (unknown origin) assessed as dissociation constant
MV4-11 = assay: Antitumor activity against human MV4-11 cells xenografted in athymic nu/nu mouse model assessed as tumor growth inhibition at 50 mg/kg administered a day measured after 14 days relative to control; assay type: functional; details: MV4-11, 336 h, time 14 day, read-out: TGI
[6] = Inhibition of 1R (unknown origin); parameters: species or system Homo sapiens
[7] = biological target: Epidermal growth factor receptor (Homo sapiens, UniProt P00533, C797S/T790M); assay: Inhibition of EGFR T790M/C797S mutant (unknown origin)
[8] = biological target: T1, Epidermal growth factor receptor (Homo sapiens, UniProt P00533); assay: Inhibition of wild type EGFR (unknown origin)
NCI-H1581 [9] = assay: animal or person; details: Mus musculus, BALB/c, NCI-H1581, 480 h, read-out: TGI
Description: Antitumor activity against human NCI-H1581 cells xenografted in BALB/c mouse assessed as tumor growth inhibition at 10 mg/kg, ip administered once daily for 20 days measured after 32 days by LC_MS/MS analysis relative to control

[10] = Half life in CD1 mouse at 3 mg/kg, ip by LC-MS/MS analysis; assay type: ADME, organism-based; details: in vivo
NCI-H1581 [11] = assay: animal or person; details: Mus musculus, BALB/c, NCI-H1581, 480 h, read-out: TGI; remark: listed apart in the source
Description: Antitumor activity against human NCI-H1581 cells xenografted in BALB/c mouse assessed as tumor growth inhibition at 50 mg/kg, ip administered once daily for 20 days measured after 32 days by LC_MS/MS analysis relative to control

BaF3 = assay: cells; details: Mus musculus, BaF3, 72 h
Description: Antiproliferative activity against mouse BaF3/TEL-FGFR1 cells measured after 72 hrs by CCK8 assay

[12] = AUC (0 to t) in CD1 mouse at 1 mg/kg, iv by LC-MS/MS analysis; assay type: ADME, organism-based; parameters: dose 1 mg/kg, route iv; details: in vivo
[13] = AUC (0 to t) in CD1 mouse at 3 mg/kg, ip by LC-MS/MS analysis; assay type: ADME, organism-based; parameters: dose 3 mg/kg, route ip; details: in vivo
[14] = Half life in CD1 mouse at 1 mg/kg, iv by LC-MS/MS analysis; assay type: ADME, organism-based; details: in vivo
[15] = biological target: Cytoplasmic tyrosine-protein kinase BMX (Homo sapiens, UniProt P51813); assay: Inhibition of BMX (unknown origin)
[16] = biological target: T1, Epidermal growth factor receptor; assay: Inhibition of human recombinant His-tagged EGFR expressed in baculovirus using poly-Gluo-Tyr as a substrate measured after 24 hrs by western blot analysis
[17] = biological target: T2, Fibroblast growth factor receptor 3 (Homo sapiens, UniProt P22607); assay: Inhibition of FGFR3 (unknown origin)
[18] = biological target: Vascular endothelial growth factor receptor 2 (Homo sapiens, UniProt P35968); assay: Inhibition of VEGFR2 (unknown origin)
[19] = biological target: Epidermal growth factor receptor (Homo sapiens, UniProt P00533, L858R); assay: Inhibition of EGFR L858R mutant (unknown origin)
[20] = biological target: Epidermal growth factor receptor (Homo sapiens, UniProt P00533, L858R/T790M); assay: Inhibition of EGFR L858R/T790M mutant (unknown origin)
[21] = biological target: Fibroblast growth factor receptor 1 (Homo sapiens, UniProt P11362); assay: Inhibition of human recombinant FGFR1
[22] = biological target: T2, Fibroblast growth factor receptor 3; assay: Inhibition of human recombinant FGFR3
animal or person = assay type: functional; details: Homo sapiens, HCC, 336 h, time 14 day, read-out: TGI
Description: Antitumor activity against human HCC cells xenografted in athymic nu/nu mouse model assessed as tumor growth inhibition at 50 mg/kg measured after 14 days relative to control

NCI-H1581 [23] = assay: Antitumor activity against human NCI-H1581 cells xenografted in athymic nu/nu mouse model assessed as tumor growth inhibition at 25 mg/kg measured after 14 days relative to control; details: NCI-H1581, 336 h, read-out: TGI
[24] = biological target: Fibroblast growth factor receptor 2 (Homo sapiens, UniProt P21802); assay: Inhibition of human recombinant FGFR2
[25] = biological target: Fibroblast growth factor receptor 4 (Homo sapiens, UniProt P22455); assay: Inhibition of human recombinant FGFR4
[26] = biological target: T3, Phosphatidylinositol 4,5-bisphosphate 3-kinase catalytic subunit delta isoform (Homo sapiens, UniProt O00329); assay: Inhibition of PI3Kdelta (unknown origin) at 1 uM
T3 sequence (O00329 whole entry): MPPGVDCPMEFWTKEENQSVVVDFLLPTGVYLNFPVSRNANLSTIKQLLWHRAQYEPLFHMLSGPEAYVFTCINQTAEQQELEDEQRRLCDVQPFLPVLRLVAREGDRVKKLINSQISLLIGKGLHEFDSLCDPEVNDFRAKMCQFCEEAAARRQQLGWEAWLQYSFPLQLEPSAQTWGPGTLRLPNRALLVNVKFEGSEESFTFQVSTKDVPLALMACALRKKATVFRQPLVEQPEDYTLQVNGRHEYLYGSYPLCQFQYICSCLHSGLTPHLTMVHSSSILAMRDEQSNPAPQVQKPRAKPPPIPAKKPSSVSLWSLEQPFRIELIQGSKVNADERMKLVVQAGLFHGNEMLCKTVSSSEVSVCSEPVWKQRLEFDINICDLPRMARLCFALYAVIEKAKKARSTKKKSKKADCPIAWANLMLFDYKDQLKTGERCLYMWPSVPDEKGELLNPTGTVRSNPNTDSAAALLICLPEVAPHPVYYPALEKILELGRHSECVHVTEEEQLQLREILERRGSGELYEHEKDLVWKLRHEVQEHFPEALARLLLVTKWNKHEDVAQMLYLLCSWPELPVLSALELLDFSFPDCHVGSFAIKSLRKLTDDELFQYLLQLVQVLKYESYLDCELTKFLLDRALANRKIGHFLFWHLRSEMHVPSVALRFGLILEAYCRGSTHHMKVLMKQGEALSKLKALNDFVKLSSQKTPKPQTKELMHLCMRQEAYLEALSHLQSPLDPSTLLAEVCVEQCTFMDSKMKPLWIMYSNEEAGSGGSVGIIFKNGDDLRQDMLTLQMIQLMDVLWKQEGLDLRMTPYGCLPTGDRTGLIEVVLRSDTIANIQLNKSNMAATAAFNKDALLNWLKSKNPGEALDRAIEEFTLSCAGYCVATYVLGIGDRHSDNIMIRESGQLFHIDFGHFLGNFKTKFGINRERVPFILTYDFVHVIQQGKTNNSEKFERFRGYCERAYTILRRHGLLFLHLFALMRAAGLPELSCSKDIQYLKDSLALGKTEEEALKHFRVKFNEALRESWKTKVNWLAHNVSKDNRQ

T1 sequence (P00533 whole entry): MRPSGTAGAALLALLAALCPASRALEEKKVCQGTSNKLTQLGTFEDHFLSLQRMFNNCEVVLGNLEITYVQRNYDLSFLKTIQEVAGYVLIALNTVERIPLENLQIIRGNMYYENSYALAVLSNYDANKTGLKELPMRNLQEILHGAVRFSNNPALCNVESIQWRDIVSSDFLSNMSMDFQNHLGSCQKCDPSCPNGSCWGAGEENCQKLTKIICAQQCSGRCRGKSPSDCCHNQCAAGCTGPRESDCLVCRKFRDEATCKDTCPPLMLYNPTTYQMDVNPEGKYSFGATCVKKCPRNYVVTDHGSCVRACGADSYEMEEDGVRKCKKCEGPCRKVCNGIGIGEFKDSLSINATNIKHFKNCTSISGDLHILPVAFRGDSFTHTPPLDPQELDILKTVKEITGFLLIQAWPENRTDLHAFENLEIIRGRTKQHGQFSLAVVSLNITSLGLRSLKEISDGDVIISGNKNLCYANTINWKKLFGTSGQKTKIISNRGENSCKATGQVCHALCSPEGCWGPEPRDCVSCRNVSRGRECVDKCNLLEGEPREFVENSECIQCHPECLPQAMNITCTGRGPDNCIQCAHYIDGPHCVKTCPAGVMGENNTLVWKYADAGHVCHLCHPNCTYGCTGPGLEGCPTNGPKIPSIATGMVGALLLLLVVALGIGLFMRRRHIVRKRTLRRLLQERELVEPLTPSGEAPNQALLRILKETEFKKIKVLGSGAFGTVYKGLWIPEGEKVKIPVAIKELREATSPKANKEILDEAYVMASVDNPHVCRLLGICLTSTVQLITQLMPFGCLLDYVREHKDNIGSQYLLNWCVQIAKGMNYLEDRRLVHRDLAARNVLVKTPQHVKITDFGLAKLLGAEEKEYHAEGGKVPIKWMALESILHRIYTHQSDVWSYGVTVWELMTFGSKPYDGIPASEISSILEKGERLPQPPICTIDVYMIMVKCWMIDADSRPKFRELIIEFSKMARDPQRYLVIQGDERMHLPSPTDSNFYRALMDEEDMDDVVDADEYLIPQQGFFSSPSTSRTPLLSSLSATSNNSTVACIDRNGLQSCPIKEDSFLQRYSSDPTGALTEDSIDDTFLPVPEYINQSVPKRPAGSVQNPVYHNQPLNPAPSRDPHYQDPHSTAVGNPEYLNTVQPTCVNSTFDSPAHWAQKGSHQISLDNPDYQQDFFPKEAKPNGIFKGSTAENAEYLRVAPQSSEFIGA
T2 sequence (P22607 whole entry): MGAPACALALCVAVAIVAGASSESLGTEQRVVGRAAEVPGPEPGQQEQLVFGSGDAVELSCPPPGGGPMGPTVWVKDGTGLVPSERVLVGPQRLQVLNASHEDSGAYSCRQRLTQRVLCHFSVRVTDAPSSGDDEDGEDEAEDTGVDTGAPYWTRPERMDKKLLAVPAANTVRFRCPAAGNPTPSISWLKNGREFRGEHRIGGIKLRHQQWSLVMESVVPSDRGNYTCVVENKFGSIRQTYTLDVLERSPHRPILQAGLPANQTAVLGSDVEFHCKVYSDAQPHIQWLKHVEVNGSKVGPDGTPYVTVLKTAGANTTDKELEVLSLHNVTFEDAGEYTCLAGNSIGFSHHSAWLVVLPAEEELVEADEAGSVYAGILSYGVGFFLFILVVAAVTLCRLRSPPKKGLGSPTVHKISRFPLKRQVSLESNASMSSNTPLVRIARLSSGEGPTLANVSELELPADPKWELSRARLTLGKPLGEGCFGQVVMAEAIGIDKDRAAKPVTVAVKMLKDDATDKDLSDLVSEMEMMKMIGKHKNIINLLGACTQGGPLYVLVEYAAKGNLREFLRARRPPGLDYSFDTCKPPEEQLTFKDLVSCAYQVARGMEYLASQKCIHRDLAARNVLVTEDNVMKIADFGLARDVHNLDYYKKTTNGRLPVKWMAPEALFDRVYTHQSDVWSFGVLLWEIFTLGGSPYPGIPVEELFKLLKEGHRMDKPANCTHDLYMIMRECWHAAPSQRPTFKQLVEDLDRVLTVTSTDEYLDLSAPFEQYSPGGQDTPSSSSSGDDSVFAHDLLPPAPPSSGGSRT
Sequence of Tyrosine-protein kinase Lck (P06239 whole entry): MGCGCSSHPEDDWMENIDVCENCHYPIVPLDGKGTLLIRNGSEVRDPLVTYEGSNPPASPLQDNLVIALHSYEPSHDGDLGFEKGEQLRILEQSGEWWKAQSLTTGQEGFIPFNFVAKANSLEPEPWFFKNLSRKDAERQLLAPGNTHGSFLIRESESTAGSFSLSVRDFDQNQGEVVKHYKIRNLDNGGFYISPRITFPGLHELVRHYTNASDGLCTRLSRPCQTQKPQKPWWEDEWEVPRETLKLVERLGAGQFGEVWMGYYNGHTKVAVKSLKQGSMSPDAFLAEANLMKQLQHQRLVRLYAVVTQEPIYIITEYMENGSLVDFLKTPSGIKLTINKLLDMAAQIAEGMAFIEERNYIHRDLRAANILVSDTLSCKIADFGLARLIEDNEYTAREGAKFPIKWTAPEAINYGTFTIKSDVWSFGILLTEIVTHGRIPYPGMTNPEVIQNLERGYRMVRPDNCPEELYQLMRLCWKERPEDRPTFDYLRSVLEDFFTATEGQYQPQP
Sequence of Epidermal growth factor receptor (Homo sapiens, UniProt P00533, L858R) (P00533 25-1210 L858R limits assumed): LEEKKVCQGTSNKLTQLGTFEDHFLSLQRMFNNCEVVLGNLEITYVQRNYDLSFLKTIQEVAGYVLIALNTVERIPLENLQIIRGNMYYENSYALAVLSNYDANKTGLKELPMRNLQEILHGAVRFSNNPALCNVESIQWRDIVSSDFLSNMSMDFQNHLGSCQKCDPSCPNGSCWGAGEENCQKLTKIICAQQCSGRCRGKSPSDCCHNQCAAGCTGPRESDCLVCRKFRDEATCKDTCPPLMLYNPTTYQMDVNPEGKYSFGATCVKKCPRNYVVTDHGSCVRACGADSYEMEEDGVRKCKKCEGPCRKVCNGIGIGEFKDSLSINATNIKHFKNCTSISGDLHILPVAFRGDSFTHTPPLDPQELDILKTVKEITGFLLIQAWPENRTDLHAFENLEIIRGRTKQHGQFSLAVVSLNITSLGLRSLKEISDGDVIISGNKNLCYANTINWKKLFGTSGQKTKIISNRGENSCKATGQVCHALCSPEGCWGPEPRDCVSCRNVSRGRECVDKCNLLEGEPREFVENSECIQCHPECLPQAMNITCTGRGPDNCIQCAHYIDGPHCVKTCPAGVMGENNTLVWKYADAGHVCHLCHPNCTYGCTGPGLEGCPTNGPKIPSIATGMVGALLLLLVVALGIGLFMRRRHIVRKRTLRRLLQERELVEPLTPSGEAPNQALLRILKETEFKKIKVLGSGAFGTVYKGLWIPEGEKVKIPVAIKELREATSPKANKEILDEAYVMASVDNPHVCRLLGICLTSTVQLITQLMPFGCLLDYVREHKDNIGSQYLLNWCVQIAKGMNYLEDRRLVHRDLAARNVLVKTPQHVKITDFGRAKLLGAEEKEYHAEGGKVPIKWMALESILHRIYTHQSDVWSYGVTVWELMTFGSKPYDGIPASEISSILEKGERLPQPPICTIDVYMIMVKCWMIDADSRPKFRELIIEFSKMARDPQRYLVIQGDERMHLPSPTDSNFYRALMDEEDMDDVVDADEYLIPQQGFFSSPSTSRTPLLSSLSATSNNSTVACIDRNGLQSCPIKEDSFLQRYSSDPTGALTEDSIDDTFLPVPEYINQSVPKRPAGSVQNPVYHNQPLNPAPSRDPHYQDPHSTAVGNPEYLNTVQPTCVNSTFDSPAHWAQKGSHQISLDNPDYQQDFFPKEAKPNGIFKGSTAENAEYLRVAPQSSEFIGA
Sequence of Vascular endothelial growth factor receptor 2 (P35968 whole entry): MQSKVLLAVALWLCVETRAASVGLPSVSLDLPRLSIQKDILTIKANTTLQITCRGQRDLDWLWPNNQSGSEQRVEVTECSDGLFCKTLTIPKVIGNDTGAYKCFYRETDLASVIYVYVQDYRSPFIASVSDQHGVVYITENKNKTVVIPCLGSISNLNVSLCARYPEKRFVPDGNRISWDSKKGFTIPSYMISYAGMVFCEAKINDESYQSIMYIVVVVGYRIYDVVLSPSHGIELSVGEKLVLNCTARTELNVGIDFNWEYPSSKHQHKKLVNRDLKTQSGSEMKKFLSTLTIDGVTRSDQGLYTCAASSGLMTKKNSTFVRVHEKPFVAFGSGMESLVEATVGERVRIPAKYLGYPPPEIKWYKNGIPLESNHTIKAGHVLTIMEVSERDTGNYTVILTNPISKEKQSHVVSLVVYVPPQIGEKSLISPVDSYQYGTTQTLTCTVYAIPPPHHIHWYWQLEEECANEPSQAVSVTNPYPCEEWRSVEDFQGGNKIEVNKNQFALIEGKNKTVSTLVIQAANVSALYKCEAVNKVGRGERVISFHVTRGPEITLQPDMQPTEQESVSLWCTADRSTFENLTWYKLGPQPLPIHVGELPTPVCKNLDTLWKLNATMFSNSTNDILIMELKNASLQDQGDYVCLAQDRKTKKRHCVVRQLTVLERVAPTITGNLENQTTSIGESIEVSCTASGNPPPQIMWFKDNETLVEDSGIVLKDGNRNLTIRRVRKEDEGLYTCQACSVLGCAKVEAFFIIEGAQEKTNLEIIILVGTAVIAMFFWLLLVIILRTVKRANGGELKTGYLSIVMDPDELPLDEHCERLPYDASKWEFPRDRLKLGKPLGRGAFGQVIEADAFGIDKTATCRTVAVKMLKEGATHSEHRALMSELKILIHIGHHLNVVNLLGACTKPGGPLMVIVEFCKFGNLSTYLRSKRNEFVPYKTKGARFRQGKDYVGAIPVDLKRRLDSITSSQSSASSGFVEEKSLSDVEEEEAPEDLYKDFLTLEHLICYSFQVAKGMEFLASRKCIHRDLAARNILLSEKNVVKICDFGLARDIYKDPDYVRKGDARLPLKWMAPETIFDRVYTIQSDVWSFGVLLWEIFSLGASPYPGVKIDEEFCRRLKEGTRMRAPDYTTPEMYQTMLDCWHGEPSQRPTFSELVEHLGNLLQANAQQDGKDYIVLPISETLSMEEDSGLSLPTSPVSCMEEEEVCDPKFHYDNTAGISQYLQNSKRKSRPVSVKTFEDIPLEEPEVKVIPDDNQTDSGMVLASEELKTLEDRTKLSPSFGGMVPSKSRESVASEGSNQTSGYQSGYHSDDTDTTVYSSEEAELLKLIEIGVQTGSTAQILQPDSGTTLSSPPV

Compound: CN(C)CC(=O)N1CCC[C@@H](n2nc(-c3ccc(Oc4ccccc4)cc3)c3c(N)ncnc32)C1
inhibition in vivo at 50 mg/kg (MV4-11): 88%

Compound: C=CC(=O)N1CCC[C@@H](n2nc(-c3cn(C)c4ccccc34)c3c(N)ncnc32)C1
pIC50 [7]: 8.72 | pIC50 [8]: 7.24

Compound: Cc1ccc2oc(-c3c4c(N)n[nH]c(=O)c4nn3-c3ccc(NC(=O)/C=C/CN(C)C)cc3)c(C)c2c1
inhibition in vivo at 10 mg/kg (NCI-H1581 [9]): 74.4% | half-life [10]: 3.7 h | inhibition in vivo at 50 mg/kg (NCI-H1581 [11]): 91.6% | pIC50 (BaF3): > 9.52 | AUCt [12]: 281 ng·h/mL | AUCt [13]: 704 ng·h/mL | half-life [14]: 1.39 h

Compound: C#CCO[C@@H]1[C@H](C)[C@@H](COC(=O)c2ccc(S(=O)(=O)F)cc2)O[C@H]1n1nc(-c2ccc(C)cc2)c2c(N)ncnc21
pIC50 [17]: 8.80 | pIC50 [18]: 6.32

Compound: C=CC(=O)N1CC[C@H](c2nc(-c3cc4cc(Br)cc(OC)c4s3)c3c(N)nccn23)C1
pIC50 [21]: > 9.52 | pIC50 [22]: > 9.52 | inhibition in vivo at 50 mg/kg (animal or person): 97.8% | inhibition in vivo at 25 mg/kg (NCI-H1581 [23]): 84.6% | pIC50 [24]: 8.96 | pIC50 [25]: 9.30

Continued, values first:

pIC50 [1]: 5.64
Compound: Nc1ncnc2c1c(-c1cccc(OCc3ccccc3)c1)cn2[C@H]1C[C@@H](CN2CCC2)C1

pKd [2]: 7.07 and 6.80 | pKd [3]: 6.14 | pKi [4]: 7.36 | pKd [5]: 6.62
Compound: Nc1ncnc2c1c(-c1ccc(Cl)cc1)nn2-c1cccc(-c2cnnn2Cc2cccc(-c3ccccc3)c2)c1

pIC50 [6]: 5.55
Compound: Nc1ncnc2c1c(-c1cccc(OCc3ccccc3)c1)cn2[C@H]1C[C@H](CN2CCCC2)C1

pIC50 [15]: 9.05
Compound: N#CN1CCC[C@@H](n2nc(-c3ccc(Oc4ccc(F)cc4F)cc3)c(C(N)=O)c2N)C1

pIC50 [16]: 6.82
Compound: COc1cccc(-c2cn(-c3ccc(CCN4CCC(O)CC4)cc3)c3ncnc(N)c23)c1

pIC50 [19]: 8.70 | pIC50 [8]: 7.89 | pIC50 [20]: 8.57
Compound: N#C/C(=C/C(=O)N1CCC[C@@H](n2nc(-c3cnc4[nH]ccc4c3)c3c(N)ncnc32)C1)C1CC1

pIC50 [26]: 9.57
Compound: Nc1ncnc2c1c(-c1cc(O)c(Br)c(F)c1)nn2C1CCc2ccccc2C1 (stereo not given)
